Key:
[1] = system: green peach aphid (Myzus persicae); assay: Enhancement of activity by ammonium/phosphonium salts in combination with penetrants, Myzus persicae test; assay type: in vivo
Experimental: To produce a suitable preparation of active compound, 1 part by weight of active compound is mixed with the stated amounts of solvent and emulsifier, and the concentrate is diluted with water to the desired concentration. For application with ammonium or phosphonium salts and penetrants (rapeseed oil methyl ester 500 EW) these are added to the spray liquor in each case in a concentration of 1000 ppm.
Bell pepper plants (Capsicum annuum) which are heavily infested by the green peach aphid (Myzus persicae) are treated by spraying to runoff point with the active compound preparation of the desired concentration. After the desired period of time, the kill in % is determined. 100% means that all animals have been killed; 0% means that none of the animals have been killed.

[2] = system: cotton aphid (Aphis gossypii); assay: Enhancement of activity by ammonium/phosphonium salts, Aphis gossypii test; assay type: in vivo; conditions: Aphis gossypii on cotton, active compound 4 ppm
Experimental: To produce a suitable preparation of active compound, 1 part by weight of active compound is mixed with the stated amounts of solvent and emulsifier, and the concentrate is diluted with emulsifier-containing water to the desired concentration. For application with ammonium or phosphonium salts, these are added to the spray liquor in a concentration of 1000 ppm.
Cotton plants (Gossypium hirsutum) which are heavily infested by the cotton aphid (Aphis gossypii) are treated by spraying to runoff point with the active compound preparation of the desired concentration.
After the desired period of time, the kill in % is determined. 100% means that all the aphids have been killed; 0% means that none of the aphids have been killed.

`Cc1cc(Cl)cc(C)c1C1=C(O)[C@]2(CC[C@H](OCC(F)(F)F)CC2)NC1=O` [Example I-1-a-1] was tested, and the “Kill rate/% after 6 days” value ([1]; 0.8 ppm, +AS (1000 ppm)) was 0%, the “Kill rate/% after 6 days” value ([1]; 0.8 ppm, +RME (1000 ppm)) was 0% and the “Kill rate/% after 6 days” value ([1]; 0.8 ppm, +RME + AS (1000 ppm each)) was 95%. For the same molecule, the “Kill rate/% after 6 days” value ([1]; 0.8 ppm, no additive) was 0%, the “Kill rate/% after 6 days” value ([1]; 4 ppm, +AS (1000 ppm)) was 90% and the “Kill rate/% after 6 days” value ([1]; 4 ppm, +RME (1000 ppm)) was 99%. The “Kill rate/% after 6 days” value ([1]; 4 ppm, +RME + AS (1000 ppm each)) was 100%, the “Kill rate/% after 6 days” value ([1]; 4 ppm, no additive) was 95% and the “Kill rate/% after 6 days” value ([2]; +AS (1000 ppm)) was 95%. For the same molecule, the “Kill rate/% after 6 days” value ([2]; without AS) was 25%.

Reference: US8435549B2, “Halogen alkoxy spirocyclic tetramic and tetronic acid derivatives” (Bayer Cropscience AG, priority 2007, dated 2013)
